This passage reports IC50 and inhibition in swelling results from patent US4610982A, “Anti-inflammatory benzo- and thieno-1,2-thiazine-3-carboxamide 1,1-dioxide derivatives, compositions, and method of use therefor” (Pfizer Inc., priority 1985, dated 1986).

One assay addresses lipoxygenase. Briefly: lipoxygenase inhibition. In kind it is biochemical.
Assay [1] has as its system carrageenin-induced rat foot edema. As to the kind of experiment: carrageenin-induced rat foot edema test. It counts as in vivo. Particulars: 32 mg./kg. dose level, oral route; rat hind paw edema three hours after carrageenin injection. An excerpt: (§1) The novel 2-acetoxybenzoyl and ring-substituted α-arylpropionyl oxicam esters of the present invention are all readily adapted to therapeutic use as anti-arthritic agents. […] A. Winter et al., Proc. Soc. Exp. Biol. Med., Vol. 111, p. […] Additionally, hydrolysis of this novel product in vivo simultaneously produces two different anti-inflammatory compounds of known value (viz., piroxicam and ketoprofen). The other oxicam ester compounds of this invention also afford similar results.
In this test, anti-inflammatory activity is determined as the percent inhibition of edema formation in the hind paw of male albino rats (weighing 150-190g.) in response to a sub-plantar injection of carrageenin. The carrageenin is injected as a 1% aqueous suspension (0.015 ml.) one hour after oral administration of the drug, which is normally given in the form of an aqueous solution. Edema formation is then assessed by measuring the volume of the injected paw initially as well as three hours after the carrageenin injection. The increase in volume three hours after carrageenin injection constitutes the individual response. […]
For orientation: The carrageenan paw model is a standard test of acute inflammation.

The target of another assay is cyclooxygenase (Homo sapiens, UniProt P23219). As to the kind of experiment: cyclooxygenase inhibition. In kind it is biochemical.
From the text: as §1

Sequence of cyclooxygenase (P23219 24-599): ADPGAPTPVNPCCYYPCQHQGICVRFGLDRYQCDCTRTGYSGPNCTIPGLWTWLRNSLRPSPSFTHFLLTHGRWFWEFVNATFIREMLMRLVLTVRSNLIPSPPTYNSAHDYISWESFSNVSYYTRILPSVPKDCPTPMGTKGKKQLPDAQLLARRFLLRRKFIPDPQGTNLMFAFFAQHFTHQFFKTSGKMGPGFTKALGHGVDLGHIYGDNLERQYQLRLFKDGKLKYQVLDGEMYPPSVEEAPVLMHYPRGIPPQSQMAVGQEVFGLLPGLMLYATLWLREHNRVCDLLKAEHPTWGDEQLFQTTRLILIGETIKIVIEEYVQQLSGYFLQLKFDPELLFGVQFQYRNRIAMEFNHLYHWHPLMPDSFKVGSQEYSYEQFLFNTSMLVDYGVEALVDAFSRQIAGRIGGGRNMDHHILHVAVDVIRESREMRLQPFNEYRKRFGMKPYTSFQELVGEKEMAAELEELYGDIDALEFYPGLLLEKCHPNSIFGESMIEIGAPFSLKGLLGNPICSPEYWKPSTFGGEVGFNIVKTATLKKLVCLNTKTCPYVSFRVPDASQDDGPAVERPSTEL

In general, IC50 refers to the concentration that gives 50% inhibition. On to `CC(C(=O)OC1=C(C(=O)Nc2ccccn2)N(C)S(=O)(=O)c2ccccc21)c1cccc(C(=O)c2ccccc2)c1` (stereo not drawn) [Example 3, 4-[α-(3-benzoylphenyl)propionyloxy]-2-methyl-N-(2-pyridinyl)-2H-1,2-benzothiazine-3-carboxamide 1,1-dioxide], for which the IC50 against lipoxygenase was determined as 0.02 µM; against cyclooxygenase, 10 µM. In addition, the inhibition in swelling in assay [1] stood at 64%.
